A compilation of properties of binary mixtures (doi:10.1016/j.jct.2008.09.001)

Assay: xn = mol fraction of the nth substance listed
Settings: 101.3 kPa

CCCCCCCC[n+]1ccccc1.F[B-](F)(F)F + O
viscosity [mPa·s]
Settings | x2 = 0 | x2 = 0.1 | x2 = 0.184 | x2 = 0.324 | x2 = 0.477 | x2 = 0.562 | x2 = 0.67 | x2 = 0.758 | x2 = 0.783
283.15 K | 640 | 404 | 261 | 161.4 | 116.4 | 63.8 | 65.55 | 51.8 | 54.27
288.15 K | – | – | – | – | – | 49.84 | – | – | 38.63
293.15 K | 320 | – | – | – | 69.9 | 39.6 | 40.42 | 28.74 | 29.21
298.15 K | 234 | 159.1 | 112.3 | 72 | 55.07 | 31.77 | – | – | 22.73
303.15 K | 171.9 | 122.5 | 86 | 57.88 | 44.37 | 26.47 | 26.82 | 19.17 | 18.09
308.15 K | – | 96.2 | 68.3 | 47.09 | 36.11 | – | 22.27 | 15.97 | –
313.15 K | 105.7 | 71.5 | 54.93 | 38.75 | 30.19 | – | – | 13.56 | 12.78
318.15 K | – | 57.41 | 44.98 | – | 25.23 | 16.88 | 15.98 | 11.52 | 11.08
323.15 K | 64.89 | 46.73 | 37.06 | – | 21.39 | – | 13.65 | 9.95 | 9.39
328.15 K | 53.52 | – | – | 23.23 | 18.15 | 12.05 | 11.88 | – | 8.2
333.15 K | – | – | – | 19.92 | 15.84 | 10.61 | 10.38 | – | 7.17
338.15 K | 38.1 | 27.06 | 22.38 | 17.32 | 13.44 | – | – | 6.75 | 6.31
343.15 K | 32.38 | 23.06 | 19.25 | – | 11.58 | 8.15 | – | 5.99 | 5.58
348.15 K | – | 19.83 | 16.71 | 13.13 | – | 7.17 | 7.19 | 5.29 | 4.97
353.15 K | 24.05 | – | – | – | – | – | – | – | –

CCCC[n+]1ccccc1.F[B-](F)(F)F + O
viscosity [mPa·s]
Settings | x2 = 0 | x2 = 0.11 | x2 = 0.263 | x2 = 0.391 | x2 = 0.414 | x2 = 0.549 | x2 = 0.637 | x2 = 0.724 | x2 = 0.856
283.15 K | 464 | 211 | – | 44.9 | 41.27 | 22.77 | – | – | 5.53
288.15 K | 313 | – | 60.2 | – | 32.98 | 18.49 | – | – | 4.58
293.15 K | 223 | 115.6 | 47.4 | 29.05 | 26.81 | 15.37 | 10.82 | 7.61 | 3.88
298.15 K | 163.3 | 88.1 | 38.1 | 23.97 | 22.21 | 12.99 | 9.16 | – | 3.36
303.15 K | 123 | – | 31.12 | 20.01 | 18.63 | – | 8 | 5.65 | 2.94
308.15 K | 94.2 | 53.4 | 25.87 | 16.93 | 15.81 | 9.61 | 7.01 | 4.92 | 2.6
313.15 K | 70.3 | 43.2 | 21.69 | 14.51 | 13.58 | – | 6.13 | – | 2.32
318.15 K | 55.8 | 35.5 | 18.48 | 12.53 | 11.77 | 7.41 | 5.43 | 3.85 | 2.09
323.15 K | 45.1 | 29.49 | 15.87 | 10.93 | 10.22 | 6.57 | 4.78 | 3.46 | 1.9
328.15 K | 37.1 | – | 13.77 | 9.58 | 9.06 | 5.86 | 4.29 | – | 1.74
333.15 K | 30.9 | 21.18 | 12.04 | 8.6 | – | 5.19 | 3.87 | 2.82 | 1.61
338.15 K | 26.01 | 18.21 | 10.57 | 7.71 | 7.17 | 4.68 | – | 2.58 | 1.5
343.15 K | 22.17 | – | – | – | 6.37 | 4.24 | 3.22 | 2.37 | 1.4
353.15 K | 15.84 | – | – | – | – | – | – | – | –
